The source of these data is US10471059B2, “Compositions and methods of using tyrosine kinase inhibitors” (YALE UNIVERSITY, priority 2015, dated 2019).

Experiment [1] has as its system PZR Y241 and Y263 phosphorylation. Kind of experiment: Shp2E76A-induced PZR tyrosyl phosphorylation in NIH 3T3 cells, immunoblot. It counts as cell-based. Particulars: cells expressing activated Shp2 (Shp2-E76A). On the technique in general: In western blotting, separated proteins are transferred to a membrane and probed.
The test system is the same in experiment [2]. Kind of experiment: Shp2 mutant-induced PZR tyrosyl phosphorylation in HEK-293 cells, immunoblot. It counts as cell-based. Particulars: HEK-293 cells transfected with Shp2 mutants; 5 μM SU6656.

As to `CC(C)(C)n1nc(-c2ccc(Cl)cc2)c2c(N)ncnc21` [PP2], the “concentration at which Shp2-E76A-induced PZR hyper tyrosyl phosphorylation was inhibited” value in experiment [1] is 5 µM.

On to `CN(C)S(=O)(=O)c1ccc2c(c1)/C(=C/c1cc3c([nH]1)CCCC3)C(=O)N2` [SU6656], for which the “concentration at which Shp2-E76A-induced PZR hyper tyrosyl phosphorylation was inhibited” value in experiment [1] is 1 µM. The “NS and NSML Shp2 mutant-induced PZR hypertyrosyl phosphorylation” value in experiment [2] was “can be inhibited”.
